For one assay, the system named is 5-HT Re-uptake. The experiment in a line: 5-HT re-uptake test ([14C]-5-HT, hypothalamus homogenate). Type of assay: biochemical, SD rats. As to the method: Eight male SD rats were decapitated. The hypothalamuses were rapidly removed, weighed and homogenized in a 9-fold volume of 0.32 mol/L ice-cold sucrose solution, and centrifuged at a rate of 3420 rpm for 10 minutes at 0-4° C. […] Ten tubes were prepared for each group and all tubes were incubated at 37° C. for 5 minutes. […] CO2 chamber for 5 minutes, followed by centrifugation at a rate of 7,480 rpm for 10 minutes. The supernatant of the solution was put into a scintillation vial for counting after adding 10 ml scintillation fluid (scintillation was performed 3 times). The re-uptake of serotonin was calculated by the difference in DMP at 37° C. and 0° C.

Assay [1] deals with Reserpine-Induced Ptosis in Mice. In words: Inhibition of reserpine-induced ptosis. In kind it is in vivo, Kunming mice. Particulars: reserpine 2 mg/kg i.p., 10 mice per group. As to the method:
Fifty male Kunming mice, 8-9 weeks old and weighing 18-22 g, were randomly divided by weight into 5 groups, and administered by gavage a single dose of one of the drugs listed in Table 3 for 10 consecutive days. Sixty minutes after the last dose, mice were given an i.p. injection of reserpine (2 mg/kg). After 60 minutes, mice were put on a bracketed stand and observed for 2 minutes. The number of animals with at least one upper eyelid closed was recorded. Fisher's exact test was used for statistical analysis.

Assay [2] concerns chronic unpredictable stress rats. The experiment in a line: Chronic unpredictable stress testing of rats (open-field test). Type of assay: in vivo. Particulars: mean ± SD. The procedure: Male stressed SD rats were housed individually and exposed for 21 days to the following unpredictable stressors: ice water swimming (4° C., 5 min), tail pinch (3 min), water deprivation (40 h), food deprivation (40 h), paired feeding, wet bedding, binding, and overnight lighting, each stress was applied two or three times. Animals in the non-stressed control group were housed 5 per cage. An open-field test was used to observe behavior. A large cubiform box (80×80×40 cm) was employed in which the floor was divided into 25 grids of equal size using white lines, with the same size grids also marked on the surrounding walls. The number of floor grids crossed (crossing) and the number of rearing up on hind limbs (rearing) were recorded. Observations of each rat were made every 3 minutes on the 22nd day. T test was used for statistical analysis.

The test system of assay [3] is mice in the forced swimming test. In words: Forced swimming test using mice. Type of assay: in vivo, Kunming mice. Particulars: mean ± SD. As to the method: Fifty male Kunming mice, 9-10 weeks old and weighing 22-24 g, were randomly divided by weight into 5 groups and administered by gavage a single dose of one of the drugs listed in Table 6. Sixty minutes later, the mice were placed in individual beakers (2500 ml, 20 cm×14 cm in diameter), which had previously been filled with water (25° C.) up to 10 cm from the bottom. The duration of immobility in the last 4 minutes in the 6-min swimming test was recorded (the term immobility indicates no movement except for respiration). T-test was used for statistical analysis.
Fifty male Kunming mice, 8-9 weeks old and weighing 18-22 g, were randomly divided by weight into 5 groups and subjected to gavage once a day for 10 consecutive days as shown in Table 7. Sixty minutes after the last dose, the mice were individually placed in beakers (2500 ml, 20 cm×14 cm in diameter), which had previously been filled with water (25° C.) up to 10 cm from the bottom. The cumulative time of immobility in the last 4 minutes of a total swimming time of 6 minutes was recorded (the term immobility indicates no movement except for respiration). T-test was used for statistical analysis.

Marks after values point to notes of the source that are not given here.

On to `CC(C)=CCC[C@](C)(O)[C@H]1CC[C@]2(C)[C@@H]1[C@H](O)C[C@@H]1[C@@]3(C)CC[C@H](O)C(C)(C)[C@@H]3CC[C@]12C` [20(S)-protopanaxadiol], for which the Amount of re-uptake in the assay with 5-HT Re-uptake (concentration 0.01 μg/ml) amounted to 4377.8 ± 479.7 dmp; with 5-HT Re-uptake (concentration 0.1 μg/ml), 4117.3 ± 532.0 dmp; in the assay with 5-HT Re-uptake (concentration 1 μg/ml) it was 3963.5 ± 459.4 dmp; in the assay with 5-HT Re-uptake (concentration 10 μg/ml), 3696.4 ± 392.9 dmp. Further, the Inhibitory rate came to 11.7% with 5-HT Re-uptake (concentration 0.01 μg/ml), 17.0% with 5-HT Re-uptake (concentration 0.1 μg/ml), 20.1% in the assay with 5-HT Re-uptake (concentration 1 μg/ml) and 25.5% with 5-HT Re-uptake (concentration 10 μg/ml). Further, the entries for the “Number of animals with at least one upper eyelid closed” value in assay [1] (3.75 mg/kg × 10 i.g.) and in assay [1] (7.5 mg/kg × 10 i.g.) were 9 and 8, respectively. The Number of crossing in assay [2] (3.33 mg/kg × 21 i.g.) is 32.90 ± 13.19 times/3 min. Besides, in assay [2] (3.33 mg/kg × 21 i.g.), the Number of rearing is reported as 6.50 ± 2.64 times/3 min.

In the case of `CNCCC(Oc1ccc(C(F)(F)F)cc1)c1ccccc1` (centres unmarked) [Fluoxetine, reference compound], in assay [3] (multiple dose 18 mg/kg × 10 i.g.), the “Cumulative immobility within 4 minutes” value was 81.50 ± 36.77 s. In addition, the “Cumulative immobility within 6 minutes” value in assay [3] (single dose 18 mg/kg × 1 i.g.) is 86.20 ± 32.56 s. In assay [1] (18 mg/kg × 10 i.g.), the “Number of animals with at least one upper eyelid closed” value is given as 4*. In addition, in assay [2] (16 mg/kg × 21 i.g.), the Number of crossing is reported as 44.40 ± 1.45 times/3 min and the Number of rearing is reported as 11.30 ± 3.43 times/3 min.

The values are drawn from patent US8148354B2, “Use of 20(S)-protopanaxadiol in manufacture of antidepressants” (priority 2006, dated 2012).
